Structures can show the parent of a compound that is named as a salt.
Target: USP7 (Homo sapiens, UniProt Q93009)
Assay: biochemical
Set-up: Ub-AMC hydrolysis by recombinant USP7 (20 nM), 30 min pre-incubation, fluorescence read-out
Conditions: read-out: % Inhibition at 50 μM

Chain of USP7 (Q93009 whole entry): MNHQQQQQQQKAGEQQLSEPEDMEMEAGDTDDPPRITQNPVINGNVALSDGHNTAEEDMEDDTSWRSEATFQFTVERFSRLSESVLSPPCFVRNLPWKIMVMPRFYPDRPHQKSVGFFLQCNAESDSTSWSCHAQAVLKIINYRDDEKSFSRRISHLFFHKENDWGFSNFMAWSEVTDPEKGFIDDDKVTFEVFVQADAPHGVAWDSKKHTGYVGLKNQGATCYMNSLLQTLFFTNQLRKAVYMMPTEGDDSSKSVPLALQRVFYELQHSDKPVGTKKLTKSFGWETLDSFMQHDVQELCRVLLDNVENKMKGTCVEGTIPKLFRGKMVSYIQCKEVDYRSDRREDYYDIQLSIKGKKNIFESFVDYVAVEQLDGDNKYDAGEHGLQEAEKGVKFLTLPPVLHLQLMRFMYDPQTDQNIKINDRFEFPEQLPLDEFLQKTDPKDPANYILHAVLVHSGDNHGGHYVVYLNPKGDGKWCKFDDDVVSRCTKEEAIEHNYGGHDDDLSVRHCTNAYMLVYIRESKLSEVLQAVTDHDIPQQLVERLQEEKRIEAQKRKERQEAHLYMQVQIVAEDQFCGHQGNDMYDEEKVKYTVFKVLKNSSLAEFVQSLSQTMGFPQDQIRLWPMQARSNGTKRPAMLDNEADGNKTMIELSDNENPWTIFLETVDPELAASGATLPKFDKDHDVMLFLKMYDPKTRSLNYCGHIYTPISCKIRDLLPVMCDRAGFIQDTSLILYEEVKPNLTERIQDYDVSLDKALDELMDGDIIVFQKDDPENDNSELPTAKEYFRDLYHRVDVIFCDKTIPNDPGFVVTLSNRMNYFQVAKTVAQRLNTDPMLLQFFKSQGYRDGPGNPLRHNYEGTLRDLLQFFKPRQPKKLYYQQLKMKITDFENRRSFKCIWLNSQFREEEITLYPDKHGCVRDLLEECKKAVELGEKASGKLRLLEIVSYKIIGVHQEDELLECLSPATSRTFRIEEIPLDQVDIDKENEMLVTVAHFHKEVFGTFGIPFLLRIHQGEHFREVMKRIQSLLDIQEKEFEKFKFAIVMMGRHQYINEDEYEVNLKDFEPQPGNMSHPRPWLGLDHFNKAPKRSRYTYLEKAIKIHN

SMILES | inhibition at 50 µM [%]
C[C@H]1[C@H](C)CC[C@]2(C(=O)O)CC[C@]3(C)C(=CC[C@@H]4[C@@]5(C)C[C@@H](O)[C@H](O)C(C)(C)[C@@H]5CC[C@]43C)[C@H]12 [Corosolic acid] | 43.2
COc1ccc(CCN(C)CCCC(C#N)(c2ccc(OC)c(OC)c2)C(C)C)cc1OC (centres unmarked) [Verapamil] | < 5
Cc1cn([C@H]2C[C@H](N=[N+]=[N-])[C@@H](CO)O2)c(=O)[nH]c1=O [3'-azido-3'-deoxythymidine] | < 5
CCCCCCCCCCCCCCCC(=O)O[C@@H]1[C@@H](O)[C@@H](O)[C@@H]([C@H](NC(=O)[C@@H]2C[C@@H](CCC)CN2C)[C@H](C)Cl)O[C@@H]1SC [Clindamycin palmitate] | < 5
CC[C@@]1(O)C(=O)OCc2c1cc1n(c2=O)Cc2cc3ccccc3nc2-1 [Camptothecin] | < 5
c1cnc(N2CCN(Cc3ccc4c(c3)OCO4)CC2)nc1 [Piribedil HCl] | < 5
O=C(O)c1cccnc1Nc1cccc(C(F)(F)F)c1 [Niflumic acid] | < 5
Clc1ccc2c(c1)C(N1CCNCC1)=Nc1ccccc1O2 [Amoxapine] | 16.8
COc1cc(-c2ccc(=O)[nH]n2)ccc1OC(F)F [Zardaverine] | < 5
c1ccc2c(c1)OCC(C1=NCCN1)O2 (centres unmarked) [Idazoxan] | < 5
CC(C)OC(=O)CCC/C=C\C[C@@H]1[C@@H](CC[C@@H](O)CCc2ccccc2)[C@H](O)C[C@@H]1O [Latanoprost] | 6.9
C#C[C@]1(O)CC[C@H]2[C@@H]3CCC4=CC(=O)CCC4=C3C=C[C@@]21CC [Gestrinone] | < 5
CC1(C)CC[C@]2(C(=O)O)CC[C@]3(C)C(=CC[C@@H]4[C@@]5(C)CC[C@H](O)C(C)(C)[C@@H]5CC[C@]43C)[C@@H]2C1 [Oleanolic acid] | 69.2
CC/C(=C(\c1ccccc1)c1ccc(OCCN(C)C)cc1)c1ccccc1 [Tamoxifen citrate] | < 5
CCN1CCC[C@H]1CNC(=O)c1cc(S(N)(=O)=O)ccc1OC [Sulpiride s (-)] | < 5
CCCCC[C@H](O)/C=C/[C@H]1[C@H](O)CC(=O)[C@@H]1CCCCCCC(=O)O [Alprostadil] | < 5
CN(C)C(=O)Oc1cccc([N+](C)(C)C)c1 [Neostigmine Br] | < 5
O=C1c2c(O)ccc(O)c2C(=O)c2c(NCCNCCO)ccc(NCCNCCO)c21 [Mitoxantrone 2HCl] | < 5
NCC1(CC(=O)O)CCCCC1 [Gabapentin] | < 5
CC(C)(C)NCC(O)c1ccccc1Cl (centres unmarked) [Tulobuterol] | 16.5
CCCCC[C@H](O)/C=C/[C@@H]1[C@@H](C/C=C\CCCC(=O)O)[C@@H](O)C[C@H]1O [Dinoprost] | < 5
COc1cccc2c1C(=O)c1c(O)c3c(c(O)c1C2=O)C[C@@](O)(C(C)=O)C[C@@H]3O[C@H]1C[C@H](N)[C@H](O)[C@H](C)O1 [Daunorubicin HCl] | < 5
COc1c(N2C[C@@H]3CCCN[C@@H]3C2)c(F)cc2c(=O)c(C(=O)O)cn(C3CC3)c12 [Moxifloxacin HCl] | < 5
N[C@@H](Cc1ccc(N(CCCl)CCCl)cc1)C(=O)O [Melphalan] | < 5
C=C1C[C@H]2[C@@H]3C=C(C)C4=CC(=O)CC[C@]4(C)[C@H]3CC[C@]2(C)[C@@]1(OC(C)=O)C(C)=O [Melengestrol acetate] | < 5

SMILES | inhibition at 50 µM [%]
Nc1ccc(S(=O)(=O)Nc2ncccn2)cc1 [Sulfadiazine] | < 5
CCCc1nc(C)c2c(=O)nc(-c3cc(S(=O)(=O)N4CCN(CC)CC4)ccc3OCC)[nH]n12 [Vardenafil] | < 5
O=C1CCc2ccc(OCCCCN3CCN(c4cccc(Cl)c4Cl)CC3)cc2N1 [Aripiprazole] | < 5
CN1CCN(CC(=O)N2c3ccccc3C(=O)Nc3cccnc32)CC1 [Pirenzepine 2HCl] | < 5
Cc1scc2c1N(C(=O)CN1CCN(C)CC1)c1ccccc1NC2=O [Telenzepine 2HCl] | < 5
CC(=O)O[C@H]1C[C@@H]2CC[C@@H]3[C@H](CC[C@@]4(C)[C@H]3C[C@H]([N+]3(C)CCCCC3)[C@@H]4OC(C)=O)[C@@]2(C)C[C@@H]1[N+]1(C)CCCCC1 [Pancuronium Br] | < 5
CC(=O)O[C@@]12CO[C@@H]1C[C@H](O)[C@@]1(C)C(=O)[C@H](O)C3=C(C)[C@@H](OC(=O)[C@H](O)[C@@H](NC(=O)OC(C)(C)C)c4ccccc4)C[C@@](O)([C@@H](OC(=O)c4ccccc4)[C@H]21)C3(C)C [Docetaxil] | < 5
CCCCC(C#N)(Cn1cncn1)c1ccc(Cl)cc1 (centres unmarked) [Myclobutanil] | < 5
CC(=O)OCC[N+](C)(C)C [Acetylcholine Cl] | < 5
Cc1nc2n(c(=O)c1CCN1CCC(c3noc4cc(F)ccc34)CC1)CCCC2 [Risperidone] | < 5
CCC(C)(C)c1ccc(CC(C)CN2C[C@@H](C)O[C@@H](C)C2)cc1 (some centres unmarked) [Amorolfine] | < 5
O=C(O)Cc1ccccc1 [Sodium phenylacetate] | < 5
CC=CC(=O)N(CC)c1ccccc1C [Crotamiton] | < 5
COc1ccc2c(c1)c(CC(=O)OCC(=O)O)c(C)n2C(=O)c1ccc(Cl)cc1 [Acemetacin] | 19.8
COc1cc2c(cc1OC)-c1c/c(=N\c3c(C)cc(C)cc3C)n(C)c(=O)n1CC2 [Trequinsin HCl] | < 5
CCn1cc(C(=O)O)c(=O)c2cc(F)c(N3CCNC(C)C3)c(F)c21 (centres unmarked) [Lomefloxacin HCl] | 8.6
C=CCc1ccccc1OCC(O)CNC(C)C (centres unmarked) [Alprenolol HCl] | < 5
CN[C@@H]1[C@H](O[C@H]2[C@H](O[C@H]3[C@H](O)[C@@H](O)[C@H](N=C(N)N)[C@@H](O)[C@@H]3N=C(N)N)O[C@@H](C)[C@]2(O)C=O)O[C@@H](CO)[C@H](O)[C@H]1O [Streptomycin sulfate] | < 5
CO[C@@H]1[C@H](OC(=O)/C=C/C=C/C=C/C=C/C(=O)O)CC[C@]2(CO2)[C@H]1[C@@]1(C)O[C@@H]1CC=C(C)C [Fumagillin] | < 5
CC(C)NCC(O)c1ccc(NS(C)(=O)=O)cc1 (centres unmarked) [Sotalol HCl] | < 5
CC(C)CN(C[C@@H](O)[C@H](Cc1ccccc1)NC(=O)O[C@H]1CCOC1)S(=O)(=O)c1ccc(N)cc1 [Amprenavir] | < 5
CN1CCC(=C2c3ccccc3C=Cc3ccccc32)CC1 [Cyproheptadine] | < 5
Nc1c(Br)cc(Br)cc1CN[C@H]1CC[C@H](O)CC1 [Ambroxol] | < 5
C[C@]12CC[C@@H]3c4ccc(O)cc4C[C@@H](CCCCCCCCC[S+]([O-])CCCC(F)(F)C(F)(F)F)[C@H]3[C@@H]1CC[C@@H]2O (some centres unmarked) [Fulvestrant] | < 5
COC(=O)Nc1nc2cc(C(=O)c3ccccc3)ccc2[nH]1 [Mebendazol] | < 5

SMILES | inhibition at 50 µM [%]
C[C@]12CC[C@H](O)CC1=CC[C@@H]1[C@@H]2CC[C@]2(C)C(=O)CC[C@@H]12 [Dehydroepiandrosterone] | < 5
CCCc1nc(C(C)(C)O)c(C(=O)O)n1Cc1ccc(-c2ccccc2-c2nnn[nH]2)cc1 [Olmesartan] | < 5
CC[C@]1(O)C[C@H]2CN(CCc3c([nH]c4ccccc34)[C@@](C(=O)OC)(c3cc4c(cc3OC)N(C=O)[C@H]3[C@@](O)(C(=O)OC)[C@H](OC(C)=O)[C@]5(CC)C=CCN6CC[C@]43[C@@H]65)C2)C1 [Vincristine sulfate] | < 5
O=C1C[C@@H]2OCC=C3CN4CC[C@]56c7ccccc7N1[C@H]5[C@H]2[C@H]3C[C@H]46 [Strychnine HCl] | < 5
Cc1ccc(/C(=C\CN2CCCC2)c2ccccn2)cc1 [Trans-triprolidine HCl] | < 5
CN/C(=N\c1ccc(C2=NNC(=O)CC2C)cc1)NC#N (centres unmarked) [Siguazodan] | < 5
Cc1cnc(C(=O)O)c[n+]1[O-] [Acipimox] | < 5
O=C(O[C@@H]1C[C@@H]2C[C@H]3C[C@H](C1)N2CC3=O)c1c[nH]c2ccccc12 [Dolasetron] | < 5
COc1ccc(CN(CCN(C)C)c2ccccn2)cc1 [Mepyramine maleate] | < 5
Cn1c(=O)c2[nH]cnc2n(C)c1=O [Aminophylline] | < 5
CC(COc1ccccc1)N(CCCl)Cc1ccccc1 (centres unmarked) [Phenoxybenzamine HCl] | < 5
CN(C)CCCN1c2ccccc2CCc2ccccc21 [Imipramine HCl] | 26.5
O=C(O)c1cc(/N=N/c2ccc(S(=O)(=O)Nc3ccccn3)cc2)ccc1O [Sulfasalazine] | < 5
CC(C)(CO)[C@@H](O)C(=O)NCCC(=O)O [Pantothenic acid] | < 5
Cc1cnc(NC(=O)C2=C(O)c3ccccc3S(=O)(=O)N2C)s1 [Meloxicam] | < 5
CCC[C@@H]1C[C@@H](C(=O)N[C@@H]([C@H]2O[C@H](SC)[C@H](O)[C@@H](O)[C@H]2O)[C@H](C)Cl)N(C)C1 [Clindamycin HCl] | < 5
CC(C)(C)NCC(O)c1cc(Cl)c(N)c(Cl)c1 (centres unmarked) [Clenbuterol] | < 5
CC(C)NCC(O)COc1cccc2[nH]ccc12 (centres unmarked) [Pindolol] | < 5
CC1(C)[C@@H](O)CC[C@]2(C)[C@H]3C(=O)C=C4[C@@H]5C[C@@](C)(C(=O)O)CC[C@]5(C)CC[C@@]4(C)[C@]3(C)CC[C@@H]12 [Glycyrrhetic acid] | < 5
CC1=C(/C=C/C(C)=C/C=C/C(C)=C/C=C/C=C(C)/C=C/C=C(C)/C=C/C2=C(C)C(=O)CCC2(C)C)C(C)(C)CCC1=O [Canthaxanthin] | < 5
Cc1ccc(C(=O)c2cc(O)c(O)c([N+](=O)[O-])c2)cc1 [Tolcapone] | 28.6
CC(C)(C)NCC(O)c1ccc(O)c(CO)c1 (centres unmarked) [Salbutamol sulfate] | < 5
CC(CCc1ccc(O)cc1)NCCc1ccc(O)c(O)c1 (centres unmarked) [Dobutamine HCl] | < 5
COc1ccc(C(=O)c2c(C)n(CCN3CCOCC3)c3ccccc23)cc1 [Pravadoline] | < 5
